Data published in ChEMBL document CHEMBL1165922, “Vitamin D receptor agonist/histone deacetylase inhibitor molecular hybrids” (Bioorg Med Chem, 2010).
Calls of active or inactive are those of the source. No cut-off for these calls is given here.

What was measured:
[1] = biological target: T1, Vitamin D3 receptor (Homo sapiens, UniProt P11473)
T1 sequence (P11473 whole entry): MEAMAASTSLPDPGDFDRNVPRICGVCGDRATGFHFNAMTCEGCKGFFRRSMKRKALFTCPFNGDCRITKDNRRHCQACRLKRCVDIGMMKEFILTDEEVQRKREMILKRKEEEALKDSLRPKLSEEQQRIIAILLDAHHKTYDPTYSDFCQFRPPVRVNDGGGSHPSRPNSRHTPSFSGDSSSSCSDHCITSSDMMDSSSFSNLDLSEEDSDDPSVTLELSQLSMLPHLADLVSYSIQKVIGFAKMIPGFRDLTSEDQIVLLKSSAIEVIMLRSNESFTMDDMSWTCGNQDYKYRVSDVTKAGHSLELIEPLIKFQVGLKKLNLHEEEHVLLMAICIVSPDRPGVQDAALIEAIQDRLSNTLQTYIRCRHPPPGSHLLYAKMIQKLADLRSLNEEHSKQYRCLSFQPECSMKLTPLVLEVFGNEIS
Description: Binding affinity to VDR ligand binding domain by fluorescence polarization competition assay

[2] = biological target: Histone deacetylase 3 (Homo sapiens, UniProt O15379); assay: Inhibition of HDAC3 after 10 mins by fluorometric assay
Sequence of Histone deacetylase 3 (O15379 whole entry): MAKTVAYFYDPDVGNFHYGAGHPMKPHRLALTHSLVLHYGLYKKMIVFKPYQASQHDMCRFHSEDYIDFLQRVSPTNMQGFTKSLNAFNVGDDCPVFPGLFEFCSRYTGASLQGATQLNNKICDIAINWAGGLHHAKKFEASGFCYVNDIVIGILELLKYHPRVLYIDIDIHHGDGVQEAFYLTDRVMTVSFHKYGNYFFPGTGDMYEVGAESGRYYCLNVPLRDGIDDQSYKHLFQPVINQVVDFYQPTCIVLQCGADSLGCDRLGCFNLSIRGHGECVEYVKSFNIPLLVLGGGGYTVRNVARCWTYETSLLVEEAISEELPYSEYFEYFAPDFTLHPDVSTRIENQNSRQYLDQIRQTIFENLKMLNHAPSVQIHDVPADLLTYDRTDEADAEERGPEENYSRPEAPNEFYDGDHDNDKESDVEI

[3] = biological target: T2, Protein deacetylase HDAC6 (Homo sapiens, UniProt Q9UBN7); assay: Inhibition of HDAC6 after 10 mins by fluorometric assay
T2 sequence (Q9UBN7 whole entry): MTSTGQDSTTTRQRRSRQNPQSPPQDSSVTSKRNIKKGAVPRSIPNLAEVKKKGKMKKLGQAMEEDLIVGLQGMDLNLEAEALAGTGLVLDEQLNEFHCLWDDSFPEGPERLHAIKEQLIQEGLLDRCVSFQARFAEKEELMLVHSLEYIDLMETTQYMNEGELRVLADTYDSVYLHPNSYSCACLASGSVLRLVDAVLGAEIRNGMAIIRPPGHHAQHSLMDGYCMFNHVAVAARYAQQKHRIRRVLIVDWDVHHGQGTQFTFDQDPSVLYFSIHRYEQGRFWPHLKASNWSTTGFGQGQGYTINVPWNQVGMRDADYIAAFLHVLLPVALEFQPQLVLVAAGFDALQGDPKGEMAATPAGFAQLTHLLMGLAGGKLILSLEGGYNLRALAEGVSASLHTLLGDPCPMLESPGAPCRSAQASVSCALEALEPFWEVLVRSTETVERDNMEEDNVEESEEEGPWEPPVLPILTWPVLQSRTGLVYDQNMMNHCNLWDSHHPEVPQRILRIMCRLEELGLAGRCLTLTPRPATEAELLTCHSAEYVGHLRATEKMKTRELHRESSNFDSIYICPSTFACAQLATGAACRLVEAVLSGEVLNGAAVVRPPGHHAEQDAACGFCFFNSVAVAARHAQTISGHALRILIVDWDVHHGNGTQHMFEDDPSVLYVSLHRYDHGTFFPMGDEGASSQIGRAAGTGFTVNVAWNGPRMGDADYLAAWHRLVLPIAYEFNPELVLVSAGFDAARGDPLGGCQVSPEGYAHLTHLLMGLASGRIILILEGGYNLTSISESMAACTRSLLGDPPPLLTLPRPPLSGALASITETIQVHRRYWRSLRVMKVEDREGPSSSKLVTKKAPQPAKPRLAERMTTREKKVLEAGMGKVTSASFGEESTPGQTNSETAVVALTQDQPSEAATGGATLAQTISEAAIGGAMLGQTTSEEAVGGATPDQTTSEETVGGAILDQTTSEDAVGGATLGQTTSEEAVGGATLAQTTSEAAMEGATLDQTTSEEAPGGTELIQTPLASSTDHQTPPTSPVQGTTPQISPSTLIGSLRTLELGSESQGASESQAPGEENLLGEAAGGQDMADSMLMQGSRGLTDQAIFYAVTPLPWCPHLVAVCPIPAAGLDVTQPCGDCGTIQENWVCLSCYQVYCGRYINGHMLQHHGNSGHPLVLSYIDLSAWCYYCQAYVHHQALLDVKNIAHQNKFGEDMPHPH

[4] = tested on: Mus musculus; assay: Toxicity in FVB mouse assessed as calcium level in blood at 1200 pmol/day administered via osmotic pump for 6 to 7 days measured on day 7 by microchemistry (RVb = […] mmol/L); format: organism-based; details: in vivo, other
[5] = tested on: Mus musculus; assay: Toxicity in FVB mouse assessed as calcium level in blood at 240 pmol/day administered via osmotic pump for 6 to 7 days measured on day 4 by microchemistry (RVb = 2.11 mmol/L); format: organism-based; details: in vivo, other
[6] = tested on: AT84; assay: Antiproliferative activity against mouse AT84 cells at 100 to 500 nM after 48 hrs by EdU incorporation assay; format: functional, cell-based
[7] = biological target: Histone deacetylase 2 (Homo sapiens, UniProt Q92769); assay: Inhibition of HDAC2 after 10 mins by fluorometric assay
Sequence of Histone deacetylase 2 (Q92769 whole entry): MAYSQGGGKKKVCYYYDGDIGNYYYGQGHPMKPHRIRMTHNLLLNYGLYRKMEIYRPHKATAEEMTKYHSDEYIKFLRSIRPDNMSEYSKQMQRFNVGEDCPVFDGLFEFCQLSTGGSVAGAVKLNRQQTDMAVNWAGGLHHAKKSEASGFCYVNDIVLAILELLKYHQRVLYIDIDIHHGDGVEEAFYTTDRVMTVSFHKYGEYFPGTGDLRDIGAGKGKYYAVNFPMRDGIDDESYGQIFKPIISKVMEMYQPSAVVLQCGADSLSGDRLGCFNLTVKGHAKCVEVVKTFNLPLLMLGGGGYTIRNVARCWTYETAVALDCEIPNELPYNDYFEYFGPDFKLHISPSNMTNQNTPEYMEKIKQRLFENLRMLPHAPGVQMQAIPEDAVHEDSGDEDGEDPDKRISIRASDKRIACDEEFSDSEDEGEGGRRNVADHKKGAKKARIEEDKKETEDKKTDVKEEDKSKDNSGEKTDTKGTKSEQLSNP

[8] = tested on: Mus musculus; assay: Toxicity in FVB mouse assessed as calcium level in blood at 1200 pmol/day administered via osmotic pump for 6 to 7 days measured on day 4 by microchemistry (RVb = 2.11 mmol/L); format: organism-based; details: in vivo, other
[9] = tested on: Mus musculus; assay: Toxicity in FVB mouse assessed as calcium level in blood at 240 pmol/day administered via osmotic pump for 6 to 7 days measured on day 7 by microchemistry (RVb = […] mmol/L); format: organism-based; details: in vivo, other
[10] = tested on: Mus musculus; assay: Toxicity in FVB mouse assessed as calcium level in blood at 240 pmol/day administered via osmotic pump for 6 to 7 days measured on day 3 by microchemistry (RVb = 2.24 mmol/L); format: organism-based; details: in vivo, other
[11] = tested on: Mus musculus; assay: Toxicity in FVB mouse assessed as calcium level in blood at 1200 pmol/day administered via osmotic pump for 6 to 7 days measured on day 3 by microchemistry (RVb = 2.24 mmol/L); format: organism-based; details: in vivo, other
[12] = tested on: Mus musculus; assay: Toxicity in FVB mouse assessed as calcium level in blood at 240 pmol/day administered via osmotic pump for 6 to 7 days measured on day 6 by microchemistry (RVb = 2 mmol/L); format: organism-based; details: in vivo, other
[13] = tested on: Mus musculus; assay: Toxicity in FVB mouse assessed as calcium level in blood at 1200 pmol/day administered via osmotic pump for 6 to 7 days measured on day 6 by microchemistry (RVb = 2 mmol/L); format: organism-based; details: in vivo, other

| Structure (SMILES) | IC50 [1] [µM] | IC50 [2] [µM] | IC50 [3] [µM] | Activity [4] [mmol/L] | Activity [5] [mmol/L] | Activity [6] | IC50 [7] [µM] | Activity [8] [mmol/L] | Activity [9] [mmol/L] | Activity [10] [mmol/L] | Activity [11] [mmol/L] | Activity [12] [mmol/L] | Activity [13] [mmol/L] |
| --- | --- | --- | --- | --- | --- | --- | --- | --- | --- | --- | --- | --- | --- |
| C[C@H](CCCCNS(=O)(=O)C(F)(F)F)[C@H]1CC[C@H]2/C(=C/C=C3C[C@@H](O)C[C@H](O)C3)CCC[C@]12C | 0.014 | 695 | 153 |  |  |  |  |  |  |  |  |  |  |
| C[C@H](CCCNS(C)(=O)=O)[C@H]1CC[C@H]2/C(=C/C=C3C[C@@H](O)C[C@H](O)C3)CCC[C@]12C | 0.213 | 730 | 71.3 |  |  |  |  |  |  |  |  |  |  |
| C[C@H](CCCCNC(=O)CS)[C@H]1CC[C@H]2/C(=C/C=C3C[C@@H](O)C[C@H](O)C3)CCC[C@]12C | 0.036 | 32.3 | 1.75 | 2.04 | 2.03 | Active | 96.3 | 2 | 2.02 |  |  |  |  |
| CCCCS(=O)(=O)NCCCC[C@@H](C)[C@H]1CC[C@H]2/C(=C/C=C3C[C@@H](O)C[C@H](O)C3)CCC[C@]12C | 0.029 | 725 | 101 | 1.99 | 1.99 |  |  | 2.12 | 2.05 |  |  |  |  |
| CNC(=O)C(=O)CCCC[C@@H](C)[C@H]1CC[C@H]2/C(=C/C=C3C[C@@H](O)C[C@H](O)C3)CCC[C@]12C |  | 36 | 64 |  |  | Active | 90.4 |  |  |  |  |  |  |
| C[C@H](CCCC(=O)Nc1ccccc1N)[C@H]1CC[C@H]2/C(=C/C=C3C[C@@H](O)C[C@H](O)C3)CCC[C@]12C | 0.524 | 460 | 330 |  |  |  |  |  |  | 1.89 | 2.07 | 2.05 | 2.14 |
| CC(/C=C/C(=O)NO)=C\[C@@H](C)[C@H]1CC[C@H]2/C(=C/C=C3\C[C@@H](O)C[C@@H](O)C3)CCC[C@]12C [TRICIFEROL] | 0.087 | 13.3 | 0.58 |  |  |  | 10.4 |  |  | 2.11 | 1.92 | 2.03 | 2.08 |
